≈ marks a conversion by molar mass, not a printed value.
Experiments:
Assay type in all cases: cell-based
[1] = tested on: Staphylococcus aureus FDA 209PJc-1; test: Antibacterial activity, agar-dilution MIC, organism No. 1; conditions: Staphylococcus aureus, FDA209PJC1; Organism No. 1, bouillon-agar; read-out: Minimum Inhibitory Concentration
In short: (§1)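 For each organism the specimen was serially diluted into bouillon agar, and inhibition was scored to give the MIC in μg/ml of culture medium.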

[2] = tested on: Staphylococcus aureus Terajima; test: Antibacterial activity, agar-dilution MIC, organism No. 2; conditions: Staphylococcus aureus; Organism No. 2, bouillon-agar; read-out: Minimum Inhibitory Concentration
In short: as §1

[3] = tested on: Staphylococcus aureus MS 353; test: Antibacterial activity, agar-dilution MIC, organism No. 3; conditions: Staphylococcus aureus, MS353; Organism No. 3, bouillon-agar; read-out: Minimum Inhibitory Concentration
In short: as §1

[4] = tested on: Streptococcus pyogenes Cook; test: Antibacterial activity, agar-dilution MIC, organism No. 4; conditions: Streptococcus pyogenes; Organism No. 4, bouillon-agar; read-out: Minimum Inhibitory Concentration
In short: as §1

[5] = tested on: Escherichia coli NIHJ-JC-2; test: Antibacterial activity, agar-dilution MIC, organism No. 5; conditions: Escherichia coli, NIHJJC2; Organism No. 5, bouillon-agar; read-out: Minimum Inhibitory Concentration
In short: as §1

[6] = tested on: Escherichia coli K12 C600 IAM 1264; test: Antibacterial activity, agar-dilution MIC, organism No. 6; conditions: Escherichia coli, IAM1264; Organism No. 6, bouillon-agar; read-out: Minimum Inhibitory Concentration
In short: as §1

[7] = tested on: Klebsiella pneumoniae PCI-602; test: Antibacterial activity, agar-dilution MIC, organism No. 7; conditions: Klebsiella pneumoniae, PCI602; Organism No. 7, bouillon-agar; read-out: Minimum Inhibitory Concentration
In short: as §1

[8] = tested on: Salmonella typhimurium IID 971; test: Antibacterial activity, agar-dilution MIC, organism No. 8; conditions: Salmonella enterica; Organism No. 8, bouillon-agar; read-out: Minimum Inhibitory Concentration
In short: as §1

[9] = tested on: Salmonella typhi 901; test: Antibacterial activity, agar-dilution MIC, organism No. 9; conditions: Salmonella enterica, TYPHI, read-out: Minimum Inhibitory Concentration
In short: as §1

[10] = tested on: Salmonella paratyphi-A 1015; test: Antibacterial activity, agar-dilution MIC, organism No. 10; conditions: Salmonella enterica, PARATYPHI, read-out: Minimum Inhibitory Concentration
In short: as §1

[11] = tested on: Salmonella shottmuelleri 8006; test: Antibacterial activity, agar-dilution MIC, organism No. 11; conditions: Salmonella, 8006; Organism No. 11, bouillon-agar; read-out: Minimum Inhibitory Concentration
In short: as §1

[12] = tested on: Salmonella enteritidis G 14; test: Antibacterial activity, agar-dilution MIC, organism No. 12; conditions: Salmonella enterica, ENTERITIDIS; Organism No. 12, bouillon-agar; read-out: Minimum Inhibitory Concentration
In short: as §1

[13] = tested on: Serratia marcescens IAM 1184; test: Antibacterial activity, agar-dilution MIC, organism No. 13; conditions: Serratia marcescens, IAM1184; Organism No. 13, bouillon-agar; read-out: Minimum Inhibitory Concentration
In short: as §1

[14] = tested on: Bacillus subtilis ATCC 6633; test: Antibacterial activity, agar-dilution MIC, organism No. 14; conditions: Bacillus subtilis, ATCC6633; Organism No. 14, bouillon-agar; read-out: Minimum Inhibitory Concentration
In short: as §1

[15] = tested on: Pseudomonas aeruginosa IFO 3445; test: Antibacterial activity, agar-dilution MIC, organism No. 15; conditions: Pseudomonas aeruginosa, IFO3445; Organism No. 15, bouillon-agar; read-out: Minimum Inhibitory Concentration
In short: as §1

[16] = tested on: Pseudomonas aeruginosa NCTC 10490; test: Antibacterial activity, agar-dilution MIC, organism No. 16; conditions: Pseudomonas aeruginosa, NCTC10490; Organism No. 16, bouillon-agar; read-out: Minimum Inhibitory Concentration
In short: as §1

[17] = tested on: Pseudomonas aeruginosa PAO 1; test: Antibacterial activity, agar-dilution MIC, organism No. 17; conditions: Pseudomonas aeruginosa, PAO1; Organism No. 17, bouillon-agar; read-out: Minimum Inhibitory Concentration
In short: as §1

[18] = tested on: Proteus morganii IFO 3848; test: Antibacterial activity, agar-dilution MIC, organism No. 18; conditions: Morganella morganii, IFO3848; Organism No. 18, bouillon-agar; read-out: Minimum Inhibitory Concentration
In short: as §1

[19] = tested on: Proteus mirabilis IFO 3849; test: Antibacterial activity, agar-dilution MIC, organism No. 19; conditions: Proteus mirabilis, IFO3849; Organism No. 19, bouillon-agar; read-out: Minimum Inhibitory Concentration
In short: as §1

[20] = tested on: Proteus vulgaris OX-19; test: Antibacterial activity, agar-dilution MIC, organism No. 20; conditions: Proteus vulgaris, OX19; Organism No. 20, bouillon-agar; read-out: Minimum Inhibitory Concentration
In short: as §1

[21] = tested on: Proteus vulgaris HX-19; test: Antibacterial activity, agar-dilution MIC, organism No. 21; conditions: Proteus vulgaris, HX19; Organism No. 21, bouillon-agar; read-out: Minimum Inhibitory Concentration
In short: as §1

[22] = tested on: Proteus rettgeri IFO 3850; test: Antibacterial activity, agar-dilution MIC, organism No. 22; conditions: Providencia rettgeri, IFO3850; Organism No. 22, bouillon-agar; read-out: Minimum Inhibitory Concentration
In short: as §1

[23] = tested on: Enterobacter aerogenes ATCC 13048; test: Antibacterial activity, agar-dilution MIC, organism No. 23; conditions: Klebsiella aerogenes, ATCC13048; Organism No. 23, bouillon-agar; read-out: Minimum Inhibitory Concentration
In short: as §1

[24] = tested on: Enterobacter cloacae 963; test: Antibacterial activity, agar-dilution MIC, organism No. 24; conditions: Enterobacter cloacae, 963; Organism No. 24, bouillon-agar; read-out: Minimum Inhibitory Concentration
In short: as §1

[25] = tested on: Micrococcus luteus ATCC 9341; test: Antibacterial activity, agar-dilution MIC, organism No. 25; conditions: Micrococcus luteus, ATCC9341; Organism No. 25, bouillon-agar; read-out: Minimum Inhibitory Concentration
In short: as §1

[26] = tested on: Streptococcus pyogenes IFO 3340; test: Antibacterial activity, agar-dilution MIC, organism No. 26; conditions: Streptococcus pyogenes, IFO3340; Organism No. 26, bouillon-agar; read-out: Minimum Inhibitory Concentration
In short: as §1

[27] = tested on: Streptococcus faecium IFO 3826; test: Antibacterial activity, agar-dilution MIC, organism No. 27; conditions: Enterococcus faecium, IFO3826; Organism No. 27, bouillon-agar; read-out: Minimum Inhibitory Concentration
In short: as §1

[28] = tested on: Mycoplasma pneumoniae IID817; test: Antimycoplasmal activity, MIC by phenol red colour change, organism No. 28; conditions: Mycoplasma, IID817; Organism No. 28, PPLO broth + 1% glucose, 37° C.; read-out: Minimum Inhibitory Concentration (MIC)
Protocol: Mycoplasma pneumoniae IID817 was used as the test microorganism in a culture medium prepared by adding 1% of glucose to "PPLO broth (manufactured by Difco Co.) liquid culture medium" at 37° C. with phenol red as an indicator, thereby culturing the test microorganism.

[29] = tested on: Candida albicans IAM 4905; test: Antifungal activity, agar-dilution MIC, organism No. 29; conditions: Candida albicans, IAM4905; Organism No. 29, bouillon-agar; read-out: Minimum Inhibitory Concentration
In short: as §1

[30] = tested on: Aspergillus niger IFO 6342; test: Antifungal activity, agar-dilution MIC, organism No. 30; conditions: Aspergillus niger, IFO6342; Organism No. 30, bouillon-agar; read-out: Minimum Inhibitory Concentration
In short: as §1

| Structure (SMILES) | MIC [1] [mg/L] | MIC [2] [mg/L] | MIC [3] [mg/L] | MIC [4] [mg/L] | MIC [5] [mg/L] | MIC [6] [mg/L] | MIC [7] [mg/L] | MIC [8] [mg/L] | MIC [9] [mg/L] | MIC [10] [mg/L] | MIC [11] [mg/L] | MIC [12] [mg/L] | MIC [13] [mg/L] | MIC [14] [mg/L] | MIC [15] [mg/L] | MIC [16] [mg/L] | MIC [17] [mg/L] | MIC [18] [mg/L] | MIC [19] [mg/L] | MIC [20] [mg/L] | also measured |
| --- | --- | --- | --- | --- | --- | --- | --- | --- | --- | --- | --- | --- | --- | --- | --- | --- | --- | --- | --- | --- | --- |
| [C-]#[N+]C12CC3(/C=C/C(=O)OC)OC3C1O2 (stereo not drawn) [Compound No. 1] | 12.5 (≈ 60.3 µM) | 12.5 (≈ 60.3 µM) | 6.25 (≈ 30.2 µM) | 200 (≈ 965 µM) | 12.5 (≈ 60.3 µM) | 12.5 (≈ 60.3 µM) | 6.25 (≈ 30.2 µM) | 12.5 (≈ 60.3 µM) | 3.13 (≈ 15.1 µM) | 6.25 (≈ 30.2 µM) | 6.25 (≈ 30.2 µM) | 6.25 (≈ 30.2 µM) | 200 (≈ 965 µM) | 50 (≈ 241 µM) | > 200 | > 200 | > 200 | 6.25 (≈ 30.2 µM) | 6.25 (≈ 30.2 µM) | 6.25 (≈ 30.2 µM) | MIC [21]: 0.2 mg/L (≈ 0.965 µM); MIC [22]: 25 mg/L (≈ 121 µM); MIC [23]: > 200 mg/L; MIC [24]: 25 mg/L (≈ 121 µM); MIC [25]: 6.25 mg/L (≈ 30.2 µM); MIC [26]: 100 mg/L (≈ 483 µM); MIC [27]: 12.5 mg/L (≈ 60.3 µM); MIC [28]: < 0.2 mg/L; MIC [29]: 6.25 mg/L (≈ 30.2 µM); MIC [30]: 12.5 mg/L (≈ 60.3 µM) |
| [C-]#[N+]C12CC3(/C=C/C(=O)OCC(=O)c4ccccc4)OC3C1O2 (stereo not drawn) [Compound No. 3] | 0.2 (≈ 0.642 µM) | 3.13 (≈ 10.1 µM) | 0.05 (≈ 0.161 µM) | 6.25 (≈ 20.1 µM) | 50 (≈ 161 µM) | 50 (≈ 161 µM) | 6.25 (≈ 20.1 µM) | 50 (≈ 161 µM) | 12.5 (≈ 40.2 µM) | 6.25 (≈ 20.1 µM) | 6.25 (≈ 20.1 µM) | 12.5 (≈ 40.2 µM) | > 100 | 50 (≈ 161 µM) | > 100 | > 100 | > 100 | 3.13 (≈ 10.1 µM) | 50 (≈ 161 µM) | 1.56 (≈ 5.01 µM) | MIC [21]: 0.05 mg/L (≈ 0.161 µM); MIC [22]: 50 mg/L (≈ 161 µM); MIC [23]: > 100 mg/L; MIC [24]: > 100 mg/L; MIC [25]: 0.2 mg/L (≈ 0.642 µM); MIC [26]: 6.25 mg/L (≈ 20.1 µM); MIC [27]: 3.13 mg/L (≈ 10.1 µM); MIC [28]: 0.05 mg/L; MIC [29]: 0.8 mg/L (≈ 2.57 µM); MIC [30]: 3.13 mg/L (≈ 10.1 µM) |
| [C-]#[N+]C12CC3(/C=C/C(=O)OCC(=O)c4ccc(Br)cc4)OC3C1O2 (stereo not drawn) [Compound No. 4, p-bromophenacylβ-substituted acrylate] | 0.4 (≈ 1.03 µM) | 0.78 (≈ 2 µM) | 1.56 (≈ 4 µM) | 12.5 (≈ 32 µM) | 6.25 (≈ 16 µM) | < 0.05 | 6.25 (≈ 16 µM) | 6.25 (≈ 16 µM) | 3.13 (≈ 8.02 µM) | < 0.05 | < 0.05 | 3.13 (≈ 8.02 µM) | > 100 | 12.5 (≈ 32 µM) | > 100 | > 100 | > 100 | 100 (≈ 256 µM) | > 200 | 0.39 (≈ 1 µM) | MIC [21]: 0.39 mg/L (≈ 1 µM); MIC [22]: 100 mg/L (≈ 256 µM); MIC [23]: 100 mg/L (≈ 256 µM); MIC [24]: 0.2 mg/L (≈ 0.513 µM); MIC [25]: < 0.05 mg/L; MIC [26]: 6.25 mg/L (≈ 16 µM); MIC [27]: 12.5 mg/L (≈ 32 µM); MIC [28]: < 0.05 mg/L; MIC [29]: 1.56 mg/L (≈ 4 µM); MIC [30]: 6.25 mg/L (≈ 16 µM) |
| [C-]#[N+]C12CC3(/C=C/C(=O)ON4C(=O)CCC4=O)OC3C1O2 (stereo not drawn) [Compound No. 9] | 50 (≈ 172 µM) | 50 (≈ 172 µM) | 50 (≈ 172 µM) | 100 (≈ 345 µM) | 50 (≈ 172 µM) | 50 (≈ 172 µM) | 200 (≈ 689 µM) | 50 (≈ 172 µM) | 50 (≈ 172 µM) | 50 (≈ 172 µM) | 50 (≈ 172 µM) | 50 (≈ 172 µM) | 200 (≈ 689 µM) | 200 (≈ 689 µM) | > 200 | > 200 | > 200 | 50 (≈ 172 µM) | 200 (≈ 689 µM) | 200 (≈ 689 µM) | MIC [21]: 25 mg/L (≈ 86.1 µM); MIC [22]: > 200 mg/L; MIC [23]: > 200 mg/L; MIC [24]: > 200 mg/L; MIC [25]: 25 mg/L (≈ 86.1 µM); MIC [26]: 100 mg/L (≈ 345 µM); MIC [27]: 50 mg/L (≈ 172 µM); MIC [28]: 6.25 mg/L; MIC [29]: > 100 mg/L; MIC [30]: > 100 mg/L |

Reference: patent US4684664A, “Derivatives of β-(4-isocyano-1,2,3,4-diepoxycyclopentyl) acrylic acid” (Kureha Kagaku Kogyo Kabushiki Kaisha, priority 1984, dated 1987)
